# Patent US9427425B2, “Extracts, fractions and compositions comprising acetogenins and their applications” (LAILA NUTRACEUTICALS, priority 2009, dated 2016)
# Experiments:
# TNFα [1] = experiment: Inhibition of LPS induced TNFα in THP-1 human monocytes (EIA); type: cell-based
# Protocol: Inhibition of Tumor necrosis factor-α (TNF-α) in vitro by extracts, fractions and compounds of Annona squamosa: The anti-inflammatory activities of extracts, fractions and compounds of Annona squamosa were assessed in a cell based in vitro assay. Briefly, THP-1 human monocytes cells were washed and re-suspended in phenol red free Dulbecco's Modified Eagle's Medium (DMEM) supplemented with 1% fetal Bovine serum (FBS). Equal number of cells was added to each well of a 96-well TC plate and the cells were pretreated for 2 h with various concentrations (ranging from 0.1 to 200 ng/mL; solutions prepared in culture medium from a stock solution containing 50 mg/l mL DMSO of each test compound) of extracts, fractions and compounds of Annona squamosa. The inflammatory response was induced by 100 ng/mL of LPS for 4 h at 37° C. in presence of 5% CO2. The vehicle control culture wells received 0.1% DMSO in culture medium. The cell culture supernatants were collected and assessed for secretory pro-inflammatory cytokine, TNFα. The TNFα concentration was quantitatively measured by highly specific and sensitive Enzyme Immuno Assay (EIA) kit supplied by R&D Systems, USA. The enzyme immuno assay was performed based on the protocol provided by the vendor. The inhibitory concentration for 50% inhibition (IC50) of TNFα was determined from a plot drawn for ingredient concentrations against corresponding TNFα levels. […] Table 1 is a summary of 50% inhibitory (IC50) concentrations of various extracts, fractions and compounds derived from Annona squamosa plant parts in cell based in vitro model.
# Rantes = experiment: Serum cytokine multiplex assay in FCA induced rats: Rantes; type: in vivo, Sprague Dawley rats; conditions: 10 mg/kg; vehicle control = 1.000
# Description: (§1) Further, the levels of a wide range of cytokine biomarkers were estimated in the serum of the treatment groups supplemented with LI12100 and the control group using multiplex assay (RCYTOMAG 80K) following the instructions provided by the vendor (Millipore Corporation, Billerica, Mass., USA). […] The cytokines modulated by LI12100 include TNFα, IFNγ, IL-1β, IL-2, IL-4, IL-6, IL-13, MCP-1, Rantes and Eotaxin.
# as §1, with “groups” for “groups supplemented with LI12100”, “ameliorated” for “modulated”, “Eotaxin as summarized in Table 3.” for “Eotaxin.”
# TNFα [2] = experiment: Serum cytokine multiplex assay in FCA induced rats: TNFα; type: in vivo, Sprague Dawley rats; conditions: 10 mg/kg; vehicle control = 1.000
# Description: as §1
# as §1, with “groups” for “groups supplemented with LI12100”, “ameliorated” for “modulated”, “Eotaxin as summarized in Table 3.” for “Eotaxin.”
# IL-13 = experiment: Serum cytokine multiplex assay in FCA induced rats: IL-13; type: in vivo, Sprague Dawley rats; conditions: 10 mg/kg; vehicle control = 1.000
# Description: as §1
# as §1, with “groups” for “groups supplemented with LI12100”, “ameliorated” for “modulated”, “Eotaxin as summarized in Table 3.” for “Eotaxin.”
# MCP-1 = experiment: Serum cytokine multiplex assay in FCA induced rats: MCP-1; type: in vivo, Sprague Dawley rats; conditions: 10 mg/kg; vehicle control = 1.000
# Description: as §1
# as §1, with “groups” for “groups supplemented with LI12100”, “ameliorated” for “modulated”, “Eotaxin as summarized in Table 3.” for “Eotaxin.”
# Eotaxin = experiment: Serum cytokine multiplex assay in FCA induced rats: Eotaxin; type: in vivo, Sprague Dawley rats; conditions: 10 mg/kg; vehicle control = 1.000
# Description: as §1
# as §1, with “groups” for “groups supplemented with LI12100”, “ameliorated” for “modulated”, “Eotaxin as summarized in Table 3.” for “Eotaxin.”
# IL-6 = experiment: Serum cytokine multiplex assay in FCA induced rats: IL-6; type: in vivo, Sprague Dawley rats; conditions: 10 mg/kg; vehicle control = 1.000
# Description: as §1
# as §1, with “groups” for “groups supplemented with LI12100”, “ameliorated” for “modulated”, “Eotaxin as summarized in Table 3.” for “Eotaxin.”
# [3] = test system: Freund's Complete Adjuvant induced paw edema; experiment: Freund's Complete Adjuvant induced arthritis model, paw edema; type: in vivo, Sprague Dawley rats; conditions: 10 mg/kg positive control
# Protocol: The potent in vitro anti-inflammatory efficacy shown by the Annona squamosa leaf ethyl acetate extract (LI12101; standardized to 0.2% squamocin C) was then tested in an in vivo system using Freund's Complete Adjuvant induced arthritis model of Sprague Dawley rats. The anti-inflammatory efficacy of LI12101 (100 mg/kg body weight per day) was evaluated in Freund's Complete Adjuvant induced arthritis model of Sprague Dawley rats and compared its efficacy with that shown by the positive control group supplemented with Prednisolone at 10 mg/kg body weight. The treatment group rats were supplemented daily with LI12101 or prednisolone. […] Blood samples were collected from each animal at regular intervals and paw volumes were measured by Plethysmography equipment on the day of FCA injection and after 13 days of FCA inoculation. […]
# To further confirm the in vivo anti-inflammatory activity and study the dose dependent effect, the methanol extract of Annona squamosa leaves (LI12100; standardized to 0.24% squamocin C) was evaluated in Freund's Complete Adjuvant induced arthritis model of Sprague Dawley rats. The anti-inflammatory efficacy of LI12100 (at 50 mg/kg and 100 mg/kg body weight per day) was evaluated in FCA induced arthritis model of Sprague Dawley rats and compared its efficacy with that shown by the positive control group supplemented with Prednisolone at 10 mg/kg body weight. […]
# TNFα [4] = experiment: Serum TNFα in FCA challenged rats (enzyme-immuno assay kit); type: in vivo, Sprague Dawley rats; conditions: 10 mg/kg
# Protocol: After 14 days of FCA challenge, serum TNFα was quantitatively measured by enzyme-immuno assay kit (R&D Systems, USA). The bars a, b and c represent the levels of the cytokines in groups supplemented with control, LI12101 (100 mg/kg) and prednisolone (10 mg/kg) respectively. Each bar represents mean±SD, N=6. * p<0.05 and ** p<0.005 (vs. control).
# After 14 days of FCA challenge, serum TNFα[…] was quantitatively measured by enzyme-immuno assay kit (R&D Systems, USA). The bars represent the levels of the cytokines in groups supplemented with control, LI12100 at 50 mg/kg body weight, LI12100 at 100 mg/kg body weight and prednisolone (10 mg/kg) respectively. Each bar represents mean±SD, N=6.
# The levels of cytokine tumor necrosis factor alpha (TNFα) were evaluated in blood serum collected 13 days after FCA challenge. The serum cytokine levels were measured using enzyme-immune assay kit supplied by R & D systems, USA.
# The levels of cytokine tumor necrosis factor-alpha (TNFα) were evaluated in blood serum collected 14 days after FCA challenge. The serum cytokine levels were measured using enzyme-immune assay kit supplied by R & D systems, USA.
# IFNγ = experiment: Serum cytokine multiplex assay in FCA induced rats: IFNγ; type: in vivo, Sprague Dawley rats; conditions: 10 mg/kg; vehicle control = 1.000
# Description: as §1
# as §1, with “groups” for “groups supplemented with LI12100”, “ameliorated” for “modulated”, “Eotaxin as summarized in Table 3.” for “Eotaxin.”
# IL-4 = experiment: Serum cytokine multiplex assay in FCA induced rats: IL-4; type: in vivo, Sprague Dawley rats; conditions: 10 mg/kg; vehicle control = 1.000
# Description: as §1
# as §1, with “groups” for “groups supplemented with LI12100”, “ameliorated” for “modulated”, “Eotaxin as summarized in Table 3.” for “Eotaxin.”
# IL-1β = experiment: Serum cytokine multiplex assay in FCA induced rats: IL-1β; type: in vivo, Sprague Dawley rats; conditions: 10 mg/kg; vehicle control = 1.000
# Description: as §1
# as §1, with “groups” for “groups supplemented with LI12100”, “ameliorated” for “modulated”, “Eotaxin as summarized in Table 3.” for “Eotaxin.”
# IL-2 = experiment: Serum cytokine multiplex assay in FCA induced rats: IL-2; type: in vivo, Sprague Dawley rats; conditions: 10 mg/kg; vehicle control = 1.000
# Description: as §1
# as §1, with “groups” for “groups supplemented with LI12100”, “ameliorated” for “modulated”, “Eotaxin as summarized in Table 3.” for “Eotaxin.”
# [5] = LPS induced THP-1 human monocytes
compound,measurement,setting,value
"CCCCCCCCCC[C@@H](O)[C@H]1CC[C@H]([C@H]2CC[C@H]([C@H](O)CCCC[C@H](O)CCCCC[C@@H](O)CC3=C[C@H](C)OC3=O)O2)O1 [10-Hydroxyasimicin, 10-hydroxyasimicin]",TNFα inhibition IC50,TNFα [1]; [5],3.21 ng/mL
"CCCCCCCCCCCCCC[C@H]1O[C@H]1CC[C@@H]1O[C@@H]1CCCCCCCCCCC1=C[C@H](C)OC1=O [Dieposabadelin, dieposabadelin]",TNFα inhibition IC50,TNFα [1]; [5],>5 ng/mL
C[C@]12C=CC(=O)C=C1CC[C@@H]1[C@@H]2[C@@H](O)C[C@@]2(C)[C@H]1CC[C@]2(O)C(=O)CO [Prednisolone],Relative expression of Rantes in serum,Rantes,0.874
same,Relative expression of TNFα in serum,TNFα [2],0.754
same,Relative expression of IL-13 in serum,IL-13,3.120
same,Relative expression of MCP-1 in serum,MCP-1,0.802
same,Relative expression of Eotaxin in serum,Eotaxin,0.992
same,Relative expression of IL-6 in serum,IL-6,1.377
same,reduction in paw volume vs control,[3]; Example 16 study,71%
same,reduction in paw volume vs control,[3]; Example 17 study,69.2%
same,serum TNFα level vs control,TNFα [4]; Example 16 study,significant reduction
same,serum TNFα level vs control,TNFα [4]; Example 17 study,significant reduction
same,Relative expression of IFNγ in serum,IFNγ,1.496
same,Relative expression of IL-4 in serum,IL-4,0.831
same,Relative expression of IL-1β in serum,IL-1β,0.848
same,Relative expression of IL-2 in serum,IL-2,0.515
"CCCCCC(O)CCCCC(O)C1CCC(C2CCC(C(O)CCCCCCCCCCCCC3=CC(C)OC3=O)O2)O1 (centres unmarked) [Squamocin C, squamocin C]",TNFα inhibition IC50,TNFα [1]; [5],0.0249 ng/mL
same,TNFα inhibition IC50,TNFα [1]; THP-1 human monocytes,0.0249 ng/mL
"CCCCCCCCCC[C@H](O)[C@H]1CC[C@H]([C@H]2CC[C@H]([C@H](O)CCCCCCCCCC[C@@H](O)CC3=C[C@H](C)OC3=O)O2)O1 [Squamocin G, squamocin G]",TNFα inhibition IC50,TNFα [1]; [5],0.124 ng/mL
"CCCCCCCCCCC(O)C1CCC(C2CCC(C(O)CCCCCCCCCCCCC3=CC(C)OC3=O)O2)O1 (centres unmarked) [Squamocin L, squamocin L]",TNFα inhibition IC50,TNFα [1]; [5],0.116 ng/mL
"CCCCCCCCCC[C@H](O)[C@@H]1CC[C@@H]([C@H](O)CC[C@@H](O)[C@@H]2CC[C@@H](CCCCCCCCCC3=C[C@@H](C)OC3=O)O2)O1 [Squamostatin D, squamostatin D]",TNFα inhibition IC50,TNFα [1]; [5],4.08 ng/mL
isosquamocin,TNFα inhibition IC50,TNFα [1]; [5],0.080 ng/mL
same,TNFα inhibition,TNFα [1]; at 100 pg/mL,63%
